# Test system: endogenous SK activity in MDA-MB-231 cells
# Experiment: Cellular S1P production (endogenous SK activity) in MDA-MB-231 cells
# Assay type: cell-based
# Conditions: Homo sapiens, MDA-MB-231, MDA-MB-231 cells incubated with 20 μg/mL of compound; percentage of S1P production inhibited
# Experimental: Human SK was incubated with 6 μg/mL of the indicated compounds, and then assayed for activity as described above. Values in the column labeled “Recombinant SK (% inhibition)” represent the percentage of SK activity that was inhibited. MDA-MB-231 cells were incubated with 20 μg/mL of the indicated compounds and then assayed for endogenous SK activity as indicated above. Values in the column labeled “Cellular S1P (% inhibition)” represent the percentage of S1P production that was inhibited. Additionally, MDA-MB-231 cells were treated with varying concentration of certain compounds and the amount of S1P produced by the cells was determined. Values in the column labeled “Cellular S1P IC50 (μM)” represent the concentration of compound required to inhibit the production of S1P by 50%. ND=not determined.
row,SMILES,inhibition at 20 µg/mL
1,"O=C(NCc1cc(F)cc(F)c1)c1nc(-c2ccc(Cl)cc2)cs1 [B36, 4-(4-Chloro-phenyl)-thiazole-2-carboxylic acid 3,5-difluoro-benzylamide]",0%
2,"O=C(NCc1ccc(Cl)c(C(F)(F)F)c1)c1nc(-c2ccc(Cl)cc2)cs1 [B37, 4-(4-Chloro-phenyl)-thiazole-2-carboxylic acid 4-chloro-3-trifluoromethyl-benzylamide]",0%
3,"O=C(NCc1ccc(F)cc1Cl)c1nc(-c2ccc(Cl)cc2)cs1 [B38, 4-(4-Chloro-phenyl)-thiazole-2-carboxylic acid 2-chloro-4-fluoro-benzylamide]",0%
4,"O=C(NCc1ccc(F)c(Cl)c1)c1nc(-c2ccc(Cl)cc2)cs1 [B39, 4-(4-Chloro-phenyl)-thiazole-2-carboxylic acid 3-chloro-4-fluoro-benzylamide]",0%
5,"O=C(NCc1ccc(F)c(F)c1)c1nc(-c2ccc(Cl)cc2)cs1 [B40, 4-(4-Chloro-phenyl)-thiazole-2-carboxylic acid 3,4-difluoro-benzylamide]",0%
6,"COc1ccc(CCNC(=O)c2nc(-c3ccc(Cl)cc3)cs2)cc1Br [B41, 4-(4-Chloro-phenyl)-thiazole-2-carboxylic acid [2-(3-bromo-4-methoxy-phenyl)-ethyl]-amide]",0%
7,"O=C(NCc1cc(F)c(F)c(F)c1)c1nc(-c2ccc(Cl)cc2)cs1 [B42, 4-(4-Chloro-phenyl)-thiazole-2-carboxylic acid 3,4,5-trifluoro-benzylamide]",0%
8,"O=C(NCc1cccc(OC(F)(F)F)c1)c1nc(-c2ccc(Cl)cc2)cs1 [B43, 4-(4-Chloro-phenyl)-thiazole-2-carboxylic acid 3-trifluoromethoxy-benzylamide]",0%
9,"O=C(NCCc1cccc(Oc2ccccc2)c1)c1nc(-c2ccc(Cl)cc2)cs1 [B44, 4-(4-Chloro-phenyl)-thiazole-2-carboxylic acid [2-(3-phenoxy-phenyl)-ethyl]-amide]",0%
10,"CN1CCCC1CCNC(=O)c1nc(-c2ccc(Cl)cc2)cs1 (stereo not shown) [B45, 4-(4-Chloro-phenyl)-thiazole-2-carboxylic acid [2-(1-methyl-pyrrolidin-2-yl)-ethyl]-amide]",0%
11,"CN1CCN(NC(=O)c2nc(-c3ccc(Cl)cc3)cs2)CC1 [B46, 4-(4-Chloro-phenyl)-thiazole-2-carboxylic acid (4-methyl-piperazin-1-yl)-amide]",0%
12,"Clc1ccc(-c2csc(N(CCCc3ccccc3)CCCc3ccccc3)n2)cc1 [B71, [4-(4-Chloro-phenyl)-thiazol-2-yl]-bis-(3-phenyl-propyl)-amine]",15%
13,"Clc1ccc(-c2csc(N(Cc3ccccc3)Cc3ccccc3)n2)cc1 [B72, Dibenzyl-[4-(4-chloro-phenyl)-thiazol-2-yl]-amine]",27%
14,"O=C(NCCN1CCOCC1)c1nc(-c2ccc(Cl)cc2)cs1 [B76, 4-(4-Chloro-phenyl)-thiazole-2-carboxylic acid (2-morpholin-4-yl-ethyl)-amide]",81%
15,"CN1CCCC1CCNC(=O)c1cccc(-c2ccc(Cl)cc2)c1 (stereo not shown) [B80, 4′-Chloro-biphenyl-3-carboxylic acid [2-(1-methyl-pyrrolidin-2-yl)-ethyl]-amide]",70%
16,"O=C(NCc1ccncc1)c1cccc(-c2ccc(Cl)cc2)c1 [B81, 4′-Chloro-biphenyl-3-carboxylic acid (pyridin-4-ylmethyl)-amide]",14%
17,"CN1CCC(NC(=O)c2cccc(-c3ccc(Cl)cc3)c2)CC1 [B82, 4′-Chloro-biphenyl-3-carboxylic acid (1-methyl-piperidin-4-yl)-amide]",67%
18,"O=C(Nc1ccc(O)cc1)c1cccc(-c2ccc(Cl)cc2)c1 [B83, 4′-Chloro-biphenyl-3-carboxylic acid (4-hydroxy-phenyl)-amide]",55%

# Same assay, conditions: Homo sapiens; MDA-MB-231 cells, varying concentrations; concentration inhibiting S1P production by 50%
row,IC50,SMILES
1,5 µM,"O=C(NCCN1CCOCC1)c1nc(-c2ccc(Cl)cc2)cs1 [B76, 4-(4-Chloro-phenyl)-thiazole-2-carboxylic acid (2-morpholin-4-yl-ethyl)-amide]"

# Source: patent US20120122870A1, “Treatment Of Ischemia-Reperfusion Injury” (MUSC FOUNDATION FOR RESEARCH DEVELOPMENT, priority 2009, published 2012)
